20 molecules from ChEMBL document CHEMBL2321862, “Development and evaluation of novel phosphotyrosine mimetic inhibitors targeting the Src homology 2 domain of signaling lymphocytic activation molecule (SLAM) associated protein” (J Med Chem, 2013) can be followed below.

Activity calls are given as the source filed them. Peptide text beside a SMILES is read from it.

In experiment [1] the target is T1, SH2 domain-containing protein 1A (Homo sapiens) (UniProt O60880).
T1 sequence (whole entry): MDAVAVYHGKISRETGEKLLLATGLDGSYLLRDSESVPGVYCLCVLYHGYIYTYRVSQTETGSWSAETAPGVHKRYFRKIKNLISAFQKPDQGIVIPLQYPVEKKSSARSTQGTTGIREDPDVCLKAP
The experiment in a line: Inhibition of recombinant 6-His-tagged SLAM associated protein SH2 domain (unknown origin) expressed in Escherichia coli BL21(DE3) binding to biotinyl-KKSLTIpYAQVQK-NH2 attached to NeutrAvidin-coated plates using p-nitrophenyl phosphate as substrate at 10 uM after 1 hr relative to control.

In experiment [2] the target is T1, SH2 domain-containing protein 1A (Homo sapiens). The experiment in a line: Inhibition of recombinant 6-His-tagged SLAM associated protein SH2 domain (unknown origin) expressed in Escherichia coli BL21(DE3) binding to biotinyl-KKSLTIpYAQVQK-NH2 attached to NeutrAvidin-coated plates using p-nitrophenyl phosphate as substrate at 100 uM after 1 hr.
For experiment [3], the target named is T2, SH2 domain-containing protein 1A (Homo sapiens, UniProt O60880).
T2 sequence (O60880 whole entry): T1 sequence (whole entry)
The experiment in a line: (§1) Inhibition of recombinant 6-His-tagged SLAM associated protein SH2 domain (unknown origin) expressed in Escherichia coli BL21(DE3) binding to biotinyl-KKSLTIpYAQVQK-NH2 attached to NeutrAvidin-coated plates using p-nitrophenyl phosphate as substrate after 1 hr.

Experiment [4] concerns the target T1, SH2 domain-containing protein 1A (Homo sapiens). The experiment is described as §1.
Experiment [5] has the same target. Nature of the experiment: Inhibition of recombinant 6-His-tagged SLAM associated protein SH2 domain (unknown origin) expressed in Escherichia coli BL21(DE3) binding to biotinyl-KKSLTIpYAQVQK-NH2 attached to NeutrAvidin-coated plates using p-nitrophenyl phosphate as substrate after 1 hr in presence of calf intestine phosphatase.
Experiment [6] shares this target. Nature of the experiment: Inhibition of recombinant 6-His-tagged SLAM associated protein SH2 domain (unknown origin) expressed in Escherichia coli BL21(DE3) binding to biotinyl-KKSLTIpYAQVQK-NH2 attached to NeutrAvidin-coated plates using p-nitrophenyl phosphate as substrate up to 1 uM after 1 hr.

A word on the IC50: it is the concentration that gives 50% inhibition.

For the molecule `NC(=O)[C@H](Cc1ccccc1)NC(=O)[C@H](Cc1ccc2c(c1)COP(=O)(O)O2)NC(=O)OCC1c2ccccc2-c2ccccc21`, in experiment [1], the fold change (FC) came to 0.73. Also, in experiment [2], the inhibition result was “Active”. Also, in experiment [3], the IC50 is 35 µM. For the same molecule, the inhibition result in experiment [4] is “Dose-dependent effect”.

In the case of `CC(C)(C)OC(=O)NCCCC[C@H](NC(=O)[C@H](Cc1ccc2c(c1)COP(=O)(O)O2)NC(=O)OCC1c2ccccc2-c2ccccc21)C(N)=O`, the fold change (FC) in experiment [1] was found to be 0.7. Moreover, in experiment [2], the inhibition entry was “Active”. The IC50 in experiment [3] worked out at 34 µM. In addition, the inhibition result in experiment [4] is “Dose-dependent effect”.

For `CC[C@H](C)[C@H](NC(=O)[C@@H](NC(=O)[C@H](CC(C)C)NC(=O)[C@H](CO)NC(=O)[C@H](CCCCN)NC(=O)[C@H](CCCCN)NC(C)=O)[C@@H](C)O)C(=O)N[C@@H](Cc1ccc(OP(=O)(O)O)cc1)C(=O)N[C@@H](C)C(=O)N[C@@H](CCC(N)=O)C(=O)N[C@H](C(=O)N[C@@H](CCC(N)=O)C(=O)N[C@@H](CCCCN)C(N)=O)C(C)C` (HELM PEPTIDE1{[ac].K.K.S.L.T.I.[O=C([C@H](Cc1ccc(OP(=O)(O)O)cc1)N[*:1])[*:2]].A.Q.V.Q.K.[am]}$$$$V2.0), the inhibition entry in experiment [5] is “inactive”. Moreover, the inhibition result in experiment [4] was “Dose-dependent effect”.

With `CC(=O)N[C@@H](CC(=O)O)C(=O)N[C@@H](CC(=O)O)C(=O)N1CCC[C@H]1C(=O)N[C@@H](CO)C(=O)N[C@@H](Cc1ccc(OP(=O)(O)O)cc1)C(=O)N[C@H](C(=O)N[C@@H](CC(N)=O)C(=O)N[C@H](C(=O)N[C@@H](CCC(N)=O)C(N)=O)C(C)C)C(C)C` (HELM PEPTIDE1{[ac].D.D.P.S.[O=C([C@H](Cc1ccc(OP(=O)(O)O)cc1)N[*:1])[*:2]].V.N.V.Q.[am]}$$$$V2.0), in experiment [6], the inhibition entry is “inactive”.

On to `NC(=O)[C@H](CC(=O)O)NC(=O)[C@@H](N)Cc1ccc2c(c1)COP(=O)(O)O2`, for which, in experiment [4], the inhibition result is “inactive”.

`CC(C)C[C@H](NC(=O)[C@H](Cc1ccc2c(c1)COP(=O)(O)O2)NC(=O)OCC1c2ccccc2-c2ccccc21)C(N)=O`: the fold change (FC) in experiment [1] came out at 0.99. In experiment [2], the inhibition entry is “Active”.

With `COC(=O)[C@H](Cc1ccc2c(c1)COP(=O)(O)O2)NC(=O)[C@@H](NC(=O)OCC1c2ccccc2-c2ccccc21)C(C)C`, in experiment [1], the fold change (FC) came out at 1.29. In addition, in experiment [2], the inhibition entry is “Active”.

In the case of `NC(=O)[C@H](CC(=O)O)NC(=O)[C@H](Cc1ccc2c(c1)COP(=O)(O)O2)NC(=O)OCC1c2ccccc2-c2ccccc21`, in experiment [1], the fold change (FC) came to 0.55. In addition, the inhibition entry in experiment [2] is “Active”. Also, the IC50 in experiment [3] was determined as 17 µM. In experiment [4], the inhibition result is “Dose-dependent effect”.

Turning to `COC(=O)[C@H](Cc1ccc2c(c1)COP(=O)(O)O2)NC(=O)[C@H](COC(C)(C)C)NC(=O)OCC1c2ccccc2-c2ccccc21`, the fold change (FC) in experiment [1] was 0.85. In addition, in experiment [2], the inhibition entry was “Active”.

`C[C@@H](O)[C@H](NC(=O)[C@H](Cc1ccc2c(c1)COP(=O)(O)O2)NC(=O)OCC1c2ccccc2-c2ccccc21)C(N)=O`: the fold change (FC) in experiment [1] was 1.22. Also, the inhibition entry in experiment [2] is “Active”.

Regarding `CC(C)[C@H](NC(=O)[C@H](Cc1ccc2c(c1)COP(=O)(O)O2)NC(=O)OCC1c2ccccc2-c2ccccc21)C(N)=O`, in experiment [1], the fold change (FC) was found to be 1. Further, the inhibition result in experiment [2] was “Active”.

For the molecule `NC(=O)[C@H](Cc1ccc(O)cc1)NC(=O)[C@H](Cc1ccc2c(c1)COP(=O)(O)O2)NC(=O)OCC1c2ccccc2-c2ccccc21`, the fold change (FC) in experiment [1] is 0.95. In experiment [2], the inhibition entry is “Active”.

For the molecule `C[C@@H](OC(C)(C)C)[C@H](NC(=O)[C@H](Cc1ccc2c(c1)COP(=O)(O)O2)NC(=O)OCC1c2ccccc2-c2ccccc21)C(N)=O`, in experiment [1], the fold change (FC) is 1.13. Besides, the inhibition result in experiment [2] was “Active”.

Take `COC(=O)[C@H](Cc1ccc2c(c1)COP(=O)(O)O2)NC(=O)[C@H](C)NC(=O)OCC1c2ccccc2-c2ccccc21`: the fold change (FC) in experiment [1] is 0.89. The inhibition entry in experiment [2] was “Active”.

With `COC(=O)[C@H](Cc1ccc2c(c1)COP(=O)(O)O2)NC(=O)[C@H](Cc1c[nH]cn1)NC(=O)OCC1c2ccccc2-c2ccccc21`, the fold change (FC) in experiment [1] is 0.89. The inhibition result in experiment [2] was “Active”.

On to `COC(=O)[C@H](Cc1ccc2c(c1)COP(=O)(O)O2)NC(=O)[C@H](CCCNC(=N)NS(=O)(=O)c1c(C)c(C)c2c(c1C)CC(C)(C)O2)NC(=O)OCC1c2ccccc2-c2ccccc21`, for which, in experiment [1], the fold change (FC) came to 0.75. Moreover, the inhibition result in experiment [2] was “Active”.

On to `NC(=O)CNC(=O)[C@H](Cc1ccc2c(c1)COP(=O)(O)O2)NC(=O)OCC1c2ccccc2-c2ccccc21`, for which, in experiment [1], the fold change (FC) came out at 1.07. Moreover, the inhibition entry in experiment [2] is “Active”.

Consider `COC(=O)[C@H](Cc1ccc2c(c1)COP(=O)(O)O2)NC(=O)[C@H](CCC(N)=O)NC(=O)OCC1c2ccccc2-c2ccccc21`, for which the fold change (FC) in experiment [1] is 1.09. Further, the inhibition entry in experiment [2] is “Active”.

On to `NCCCC[C@H](NC(=O)[C@H](Cc1ccc2c(c1)COP(=O)(O)O2)NC(=O)OCC1c2ccccc2-c2ccccc21)C(N)=O`, for which the fold change (FC) in experiment [1] is 1.22. Besides, the inhibition result in experiment [2] is “Active”.

For the molecule `NC(=O)[C@H](CC(=O)NC(c1ccccc1)(c1ccccc1)c1ccccc1)NC(=O)[C@H](Cc1ccc2c(c1)COP(=O)(O)O2)NC(=O)OCC1c2ccccc2-c2ccccc21`, in experiment [1], the fold change (FC) worked out at 1.03. Besides, the inhibition result in experiment [2] is “Active”.
